The values that follow come from doi:10.1101/2021.10.07.463234v2 (biorxiv, 2021).

This assay has as its target SARS-CoV-2 Mac1 (Severe acute respiratory syndrome coronavirus 2, UniProt P0DTD1). As to the kind of experiment: biochemical. Particulars: for %inhibition: 100 µM, inhibitor; for inhibition at 100 µM: read-out: %inhibition.

Counter-ions that a name gives are not always drawn.

As a reminder, the %inhibition is the share of the control response that was lost under treatment. Low readings indicate a response near the control, high ones a response far below the control. Take `C[C@@H]1C[C@H]2[C@@H]3CCC4=CC(=O)C=C[C@]4(C)[C@@]3(F)[C@@H](O)C[C@]2(C)[C@@]1(O)C(=O)CO` [Dexamethasone (DHAP)]: the “%inhibition” value came to 0%.

Usually inhibition stands for how much of the control response was suppressed. `CC(=O)OCC(=O)[C@@]1(O)[C@H](C)C[C@H]2[C@@H]3CCC4=CC(=O)C=C[C@]4(C)[C@@]3(F)[C@@H](O)C[C@@]21C` [Dexamethasone Acetate]: the inhibition at 100 µM stood at 0%.

As for `Cc1c(OCC(F)(F)F)ccnc1C[S@@+]([O-])c1nc2ccccc2[nH]1` [Dexlansoprazole], the inhibition at 100 µM is 13.9%.

For the compound `Cc1cccc([C@H](C)c2c[nH]cn2)c1C` [Dexmedetomidine HCl], the “%inhibition” value was found to be 0%.

On to `Cc1cccc([C@H](C)c2c[nH]cn2)c1C` [Dexmedetomidine], for which the “%inhibition” value amounted to 18.38%.

As to `C[C@@H](CN1CC(=O)NC(=O)C1)N1CC(=O)NC(=O)C1` [Dexrazoxane HCl (ICRF-187, ADR-529)], the “%inhibition” value came out at 32.25%.

Turning to `C[C@@H](CN1CC(=O)NC(=O)C1)N1CC(=O)NC(=O)C1` [Dexrazoxane], the “%inhibition” value worked out at 12.37%.

Turning to `COc1ccc2c(c1)[C@]13CCCC[C@@H]1[C@H](C2)N(C)CC3` [Dextromethorphan hydrobromide hydrate], the inhibition at 100 µM turned out to be 8.58%.

In the case of `OC[C@H]1OC(O)[C@H](O)[C@@H](O)[C@@H]1O` (stereo partly drawn) [Dextrose], the inhibition at 100 µM was 0%.

As for `CC(=O)Oc1cccc2c1C(=O)c1c(OC(C)=O)cc(C(=O)O)cc1C2=O` [Diacerein], the inhibition at 100 µM stood at 3.21%.

With `C=C=CCNC(=O)c1ccc(F)cc1` [Diastase], the inhibition at 100 µM came to 0%.

Regarding `CC(=O)Nc1c(I)c(NC(C)=O)c(I)c(C(=O)O)c1I` [Diatrizoate sodium], the inhibition at 100 µM was 7.54%.

For the compound `CC1=Nc2ccc(Cl)cc2S(=O)(=O)N1` [Diazoxide], the inhibition at 100 µM was found to be 0%.

Regarding `CCCC(=O)Nc1ncnc2c1ncn2[C@@H]1O[C@@H]2COP(=O)(O)O[C@H]2[C@H]1OC(=O)CCC` [Dibutyryl-cAMP (Bucladesine)], the inhibition at 100 µM stood at 4.86%.

`Oc1ccc(Cl)cc1Cc1cc(Cl)ccc1O` [Dichlorophene]: the inhibition at 100 µM turned out to be 15%.

For `NS(=O)(=O)c1cc(Cl)c(Cl)c(S(N)(=O)=O)c1` [Dichlorphenamide (Diclofenamide)], the inhibition at 100 µM worked out at 3.01%.

Regarding `N#CC(c1ccc(Cl)cc1)c1c(Cl)cc(-n2ncc(=O)[nH]c2=O)cc1Cl` (stereo not drawn) [Diclazuril], the inhibition at 100 µM is 0%.

On to `O=C(O)Cc1ccccc1Nc1c(Cl)cccc1Cl` [Diclofenac Diethylamine], for which the “%inhibition” value was found to be 0%.

Take `O=C(O)Cc1ccccc1Nc1c(Cl)cccc1Cl` [Diclofenac Potassium]: the “%inhibition” value was 7.108%.

With `O=C(O)Cc1ccccc1Nc1c(Cl)cccc1Cl` [Diclofenac Sodium], the “%inhibition” value is recorded as 15.35%.

In the case of `Cc1onc(-c2c(Cl)cccc2Cl)c1C(=O)N[C@@H]1C(=O)N2[C@@H]1SC(C)(C)[C@@H]2C(=O)O` [Dicloxacillin Sodium], the inhibition at 100 µM was found to be 10.8%.

In the case of `O=c1oc2ccccc2c(O)c1Cc1c(O)c2ccccc2oc1=O` [Dicoumarol], the inhibition at 100 µM stood at 13.4%.

With `C[C@]12CCC3=C4CCC(=O)C=C4CC[C@H]3[C@@H]1CC[C@@]2(O)CC#N` [Dienogest], the inhibition at 100 µM was 22%.

As for `CCN(CC)C(=O)N1CCN(C)CC1` [Diethylcarbamazine citrate], the inhibition at 100 µM worked out at 0%.

On to `CN1CCN(c2cc3c(cc2F)c(=O)c(C(=O)O)cn3-c2ccc(F)cc2)CC1` [Difloxacin HCl], for which the inhibition at 100 µM turned out to be 2.61%.

`O=C(O)c1cc(-c2ccc(F)cc2F)ccc1O` [Diflunisal]: the inhibition at 100 µM was determined as 0.967%.

Turning to `CCCC(=O)O[C@]1(C(=O)COC(C)=O)CC[C@H]2[C@@H]3C[C@H](F)C4=CC(=O)C=C[C@]4(C)[C@@]3(F)[C@@H](O)C[C@@]21C` [Difluprednate], the inhibition at 100 µM was 22.2%.
